From patent US11453640B2, “Small molecules for disrupting the super elongation complex and inhibiting transcription elongation for cancer therapy” (NORTHWESTERN UNIVERSITY, priority 2018, dated 2022)

Legend:
[1] = system: heat shock inducible genes in HCT-116 cells; assay: Heat shock induction in HCT-116 cells (Pol II ChIP-seq); format: cell-based, human; settings: 5 hr pretreatment, 42° C. 1 hr
Protocol: FIG. 5. SEC inhibitors block transcription elongation in SEC-dependent rapid response models. (A-B) Genome browser tracks of Pol II ChIP-seq at the FOS, HSPD1 and HSPE1 genes after 1 hr heat shock of HCT-116 cells treated with vehicle (DMSO) or the indicated SEC inhibitors. HCT-116 cells were pretreated with inhibitors for 5 hr at 37° C. before exchanging medium with conditioned 42° C. medium. Dark and light colors indicate the 37 and 42° C. conditions, respectively. (C) Genome-wide identification of heat shock-induced genes with fold change of reads per million in gene bodies and pausing index. Red dots are the 136 heat shock-induced genes according to Pol II signals (fold change of reads per million in gene bodies >1.5 and pausing index decreased >1.5-fold in the DMSO-treated condition). […] Box plot analysis depicts the log2 fold changes of reads per million in gene bodies (E) (y axis) after heat shock with pretreatment of vehicle or SEC inhibitors. […]
Chromatin Immunoprecipitation Sequencing. […] ChIP-seq reads were aligned to the Drosophila genome (UCSC dm3) or human genome (UCSC hgl9). Alignments were processed with Bowtie version 1.1.2, allowing only uniquely mapping reads with up to two mismatches within the 50 bp read. The resulting reads were extended to 150 bp toward the interior of the sequenced fragment and normalized to total reads aligned (reads per million, r.p.m.). […]

[2] = system: heat shock responsive genes in Drosophila S2 cells; assay: Heat shock induction in Drosophila S2 cells; format: cell-based; settings: 20 μM
Protocol: FIG. 5. SEC inhibitors block transcription elongation in SEC-dependent rapid response models. (A-B) Genome browser tracks of Pol II ChIP-seq at the FOS, HSPD1 and HSPE1 genes after 1 hr heat shock of HCT-116 cells treated with vehicle (DMSO) or the indicated SEC inhibitors. HCT-116 cells were pretreated with inhibitors for 5 hr at 37° C. before exchanging medium with conditioned 42° C. medium. Dark and light colors indicate the 37 and 42° C. conditions, respectively. (C) Genome-wide identification of heat shock-induced genes with fold change of reads per million in gene bodies and pausing index. Red dots are the 136 heat shock-induced genes according to Pol II signals (fold change of reads per million in gene bodies >1.5 and pausing index decreased >1.5-fold in the DMSO-treated condition). […] Box plot analysis depicts the log2 fold changes of reads per million in gene bodies (E) (y axis) after heat shock with pretreatment of vehicle or SEC inhibitors. […] S2 cells were heat shocked at 37° C. with and without 20 μM SEC inhibitors for 6 hr (left panel). The statistical analysis was performed with the Wilcoxon test.
Heat Shock Induction. Heat shock of mammalian cells was performed using ˜70-80% confluent HCT-116 cells by adding pre-heated (42° C.) conditioned media collected from identically growing cells (Mahat et al., 2016b). The heat shock cells were incubated at 42° C. for 1 hour. […]

[3] = system: Tat-induced HIV genome activation in J-Lat 6.3 cells; assay: Tat-induced HIV genome activation in J-Lat 6.3 cells (GFP, FACS); format: cell-based, human; settings: 20 μM, 10 nM PMA, 17 hr
Protocol: FIG. 12, related to FIG. 5. SEC inhibitors block transcription elongation in SEC-dependent rapid response models. […] (B) Gene Ontology analysis of the 136 identified heat shock-induced genes in HCT-116 cells. (C) Workflow of Tat-induced HIV genome activation in J-Lat 6.3 cells. J-Lat 6.3 cells contain an integrated copy of the HIV genome that has GFP replacing HIV nef and could be activated by Phorbol-12-Myristate-13-Acetate (PMA). J-Lat 6.3 cells were treated with vehicle or 20 μM SEC inhibitor along with PMA to activate the HIV genome transcription, which could be monitored by flow cytometry analysis. (D-E) SEC inhibitors block Tat-induced HIV genome activation in J-Lat 6.3 cells. (D) FACS analysis of J-Lat 6.3 cells treated with 10 nM PMA and SEC inhibitors for 17 hr. […] Unpaired two-way ANOVA was used to compare the groups between DMSO and SEC inhibitors. ***, p<0.001. Data are represented as Mean+/−SD. […]
Induction of J-Lat 6.3 Cells. […] Cells were washed in PBS and GFP fluorescence was measured with a FACSVantage instrument (Becton Dickinson, San Jose, Calif.). […] A two-parameter analysis to distinguish GFP-derived fluorescence from background fluorescence was used: GFP was measured in FL1 and cellular autofluorescence was monitored in FL2. The percentage of GFP-positive cells was calculated based on live cells (Jordan et al., 2003).

MDA231-LM2 cells = assay: Annexin V apoptosis in MDA231-LM2 cells; format: cell-based; settings: 24 hr
Protocol: FIG. 14, related to FIG. 7. SEC disruptors delay tumor progression and improve survival of MDA231-LM2 tumor mice. (A) KL-1 and KL-2 inhibit the colony formation of MDA231-LM2 cells in vitro. 5×10^3 MDA231-LM2 cells were seeded in 6-well plates and treated with KL-1 or KL-2 at the indicated doses for 5 days. Crystal violet staining was performed to stain the colonies. (B) KL-1 and KL-2 induce apoptosis in MDA231-LM2 cells. Bar graph depiction of Annexin V positive MDA231-LM2 cells after 24 hr of KL-1 and KL-2 treatments at the indicated concentrations. Data are represented as Mean+/−SD. […] Each individual line indicates the weights of each mouse during toxicity test.

## COc1cccc(C(=O)CC(=O)C(=O)Nc2cc(Cl)ccc2C)c1 [KL-1, N-(5-chloro-2-methylphenyl)-4-oxo-4-(3-methoxyphenyl)-2-oxobutanamide]
[1]
  induction of heat shock inducible genes: block induction of known heat shock inducible genes
[2]
  heat shock induction of the 215 heat shock responsive genes: attenuated heat shock induction
[3]
  GFP expression after PMA induction: strong inhibition of GFP expression
MDA231-LM2 cells
  apoptosis (Annexin V staining): increase apoptosis
